15 compounds from patent US8415375B2, “2-hydroxyethyl-1H-quinolin-2-one derivatives and their azaisosteric analogues with antibacterial activity” (Actelion Pharmaceuticals Ltd., priority 2009, dated 2013) can be followed below.

Structures are written as SMILES. Converted amounts (≈) assume the structure as drawn. Bounds are passed on as bounds.

Holding throughout (assay type): cell-based
In one data set the test system is S. aureus 29213. The data set is described as follows: Bacterial growth minimal inhibitory concentration (microdilution, cation-adjusted Mueller-Hinton Broth). To be noted: Staphylococcus aureus. Here is the method:
Minimal inhibitory concentrations (MICs; mg/l) were determined in cation-adjusted Mueller-Hinton Broth by a microdilution method following the description given in “Methods for Dilution Antimicrobial Susceptibility Tests for Bacteria that Grow Aerobically”, Approved standard, 7th ed., Clinical and Laboratory Standards Institute (CLSI) Document M7-A7, Wayne, Pa., USA, 2006. All Example compounds were tested against several Gram positive and Gram negative bacteria. Typical antibacterial test results are given in Table 1 hereafter (MIC in mg/l).
In general terms: Dilution methods test growth across graded concentrations, often in twofold steps.

The subject of the next data set is S. aureus A798. The data set is described as follows: Bacterial growth minimal inhibitory concentration (microdilution), S. aureus A798. The note with it: Staphylococcus aureus. Here is the method: Minimal inhibitory concentrations (MICs; mg/l) were determined in cation-adjusted Mueller-Hinton Broth by a microdilution method following the description given in “Methods for Dilution Antimicrobial Susceptibility Tests for Bacteria that Grow Aerobically”, Approved standard, 7th ed., Clinical and Laboratory Standards Institute (CLSI) Document M7-A7, Wayne, Pa., USA, 2006.
[drawing 16] using the experimentals methods described above for the MIC regarding S. aureus A798 bacteria and for in vitro blocking hERG K^+ channels gave the results summarised in the Table 2 hereafter.

The target in another data set is T1, hERG K+ channel (Homo sapiens, UniProt Q12809).
T1 construct: host or cells: CHO-K1 (CHOhERG)
T1 sequence (Q12809 whole entry): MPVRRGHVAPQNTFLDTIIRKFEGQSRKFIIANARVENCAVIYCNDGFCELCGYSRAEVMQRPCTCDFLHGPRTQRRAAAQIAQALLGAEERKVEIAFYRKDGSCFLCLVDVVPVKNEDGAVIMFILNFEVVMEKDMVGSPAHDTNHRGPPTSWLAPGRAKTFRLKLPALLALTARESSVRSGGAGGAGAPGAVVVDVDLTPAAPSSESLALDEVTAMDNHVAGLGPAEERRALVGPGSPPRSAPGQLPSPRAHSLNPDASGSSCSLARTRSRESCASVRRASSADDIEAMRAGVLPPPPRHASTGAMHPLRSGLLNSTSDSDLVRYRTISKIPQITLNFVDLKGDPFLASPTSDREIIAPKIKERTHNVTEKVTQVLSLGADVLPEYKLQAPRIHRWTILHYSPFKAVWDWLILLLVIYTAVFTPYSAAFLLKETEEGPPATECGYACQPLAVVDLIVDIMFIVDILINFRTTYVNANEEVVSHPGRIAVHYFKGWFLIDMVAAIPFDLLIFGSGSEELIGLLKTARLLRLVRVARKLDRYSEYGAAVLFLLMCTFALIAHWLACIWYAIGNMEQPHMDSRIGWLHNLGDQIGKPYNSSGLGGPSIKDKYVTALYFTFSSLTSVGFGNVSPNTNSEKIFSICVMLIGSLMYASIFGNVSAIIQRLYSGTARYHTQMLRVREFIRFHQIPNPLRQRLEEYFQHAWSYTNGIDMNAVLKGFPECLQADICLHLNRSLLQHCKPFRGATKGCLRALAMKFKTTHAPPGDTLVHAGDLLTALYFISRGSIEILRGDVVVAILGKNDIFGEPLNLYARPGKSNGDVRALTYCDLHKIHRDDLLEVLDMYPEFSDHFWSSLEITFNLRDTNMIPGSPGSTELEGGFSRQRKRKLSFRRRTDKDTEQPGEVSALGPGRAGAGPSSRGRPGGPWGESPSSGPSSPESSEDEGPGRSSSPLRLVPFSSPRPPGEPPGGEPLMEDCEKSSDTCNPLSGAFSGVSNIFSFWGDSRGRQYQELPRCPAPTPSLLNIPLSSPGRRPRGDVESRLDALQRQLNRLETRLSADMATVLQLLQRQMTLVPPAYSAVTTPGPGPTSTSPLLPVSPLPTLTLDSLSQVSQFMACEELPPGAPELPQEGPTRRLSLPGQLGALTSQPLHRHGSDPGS
Briefly: In vitro blocking of hERG K+ channels (QPatch automated patch-clamp, CHO-K1 cells). The note with it: pH 7.4, at 10 μM, recombinant hERG in CHO-K1 cells, average block on two cells. Here is the method:
hERG K^+ channels have been cloned from human heart and recombinant channels are stably expressed in CHO-K1 cells (CHOhERG). These cells have been purchased from bSys GmbH(CH-4052 Basel, Switzerland) and are grown in 150 mL culture flasks at 37° C. in 5% CO2. When the cells are ˜100% confluent, they are detached with 0.25% trypsin-EDTA solution and placed in the cell preparation unit of a QPatch automated patch-clamp robot (Sophion Bioscience A/S, 2750 Ballerup, Denmark).
Currents through the hERG K^+ channels (IKhERG) are elicited using the following buffer solutions and voltage protocol: • extracellular solution (in mM): [NaCl]=150; [KCl]=4; [CaCl2]=1.2; [MgCl2]=1; [HEPES]=10; pH adjusted to 7.4 with NaOH; • intracellular solution (in mM): [KCl]=140; [NaCl]=10; [MgCl2]=1; [HEPES]=10; [EGTA]=5; [Mg-ATP]=5; [Na3-GTP]=0.1; pH adjusted to 7.2 with KOH; • voltage protocol: the resting potential is −80 mV and the frequency of stimulation is 0.1 Hz. hERG K^+ currents are measured as the average current during the last 20 ms of the 500 ms pulse to −40 mV minus the average current during the last 20 ms of the 50 ms pulse to −40 mV.
After the cells have stabilized for a few minutes and the currents are steady, the amplitude of IKhERG is recorded under control conditions. Thereafter, the QPatch robot applies the test compound to the cell at the test concentration and, after 4 minutes of stimulation, the amplitude of IKhERG is recorded under test conditions. The ratio of the two amplitudes is used to define a fractional block and the average block on two cells is used to provide the effect of a given concentration (e.g. 10 μM). If, for a given test compound, a sufficient number of concentrations were tested, an apparent IC50 for inhibition of IKhERG is calculated.
In general terms: hERG is a cardiac potassium channel; its block is linked to QT prolongation.

One may read the MIC as the lowest concentration that inhibits growth of the organism. Low readings indicate greater potency, high ones weaker potency. In general, inhibition refers to the relative decrease from the control value, in per cent.

Consider `COc1ccc2ccc(=O)n(C[C@H](O)C3CCC(NCc4cc5c(cn4)OCCO5)CC3)c2n1` (stereo partly drawn) [Example 6, 1-((2R)-2-{4-[(2,3-dihydro-[1,4]dioxino[2,3-c]pyridin-7-ylmethyl)-amino]cyclohexyl}-2-hydroxy-ethyl)-7-methoxy-1H-[1,8]naphthyridin-2-one], for which the MIC against S. aureus 29213 is no more than 0.031 µg/mL; against S. aureus A798, no more than 0.063 µg/mL. In addition, the inhibition at 4 min, 10 µM at hERG K+ channel was 35%.

As to `COc1ccc2ncc(=O)n(C[C@H](O)[C@@H]3CC[C@@H](NCc4cc5c(cn4)OCCO5)CO3)c2n1` [Example 4, 4-((2S)-2-{(2S,5R)-5-[(2,3-dihydro-[1,4]dioxino[2,3-c]pyridin-7-ylmethyl)-amino]tetrahydro-pyran-2-yl}-2-hydroxy-ethyl)-6-methoxy-4H-pyrido[2,3-b]pyrazin-3-one], the MIC is no more than 0.031 µg/mL in the data set on S. aureus 29213 and no more than 0.063 µg/mL with S. aureus A798. For the same compound, the inhibition at 4 min, 10 µM at hERG K+ channel was found to be 7%.

With `COc1cnc2ccc(=O)n(C[C@H](O)[C@@H]3CC[C@@H](NCc4cc5c(cn4)OCCS5)CO3)c2n1` [Example 14, 5-((2S)-2-{(2S,5R)-5-[(2,3-dihydro-4-oxa-1-thia-6-aza-naphthalen-7-ylmethyl)-amino]-tetrahydro-pyran-2-yl}-2-hydroxy-ethyl)-3-methoxy-5H-pyrido[2,3-b]pyrazin-6-one], the MIC in the data set with S. aureus 29213 is no more than 0.031 µg/mL.

On to `COc1cnc2ccc(=O)n(C[C@H](O)[C@@H]3CC[C@@H](NCc4cc5c(cn4)OCCO5)CO3)c2n1` [Example 13, 5-((2S)-2-{(2S,5R)-5-[(2,3-dihydro-[1,4]dioxino[2,3-c]pyridin-7-ylmethyl)-amino]-tetrahydro-pyran-2-yl}-2-hydroxy-ethyl)-3-methoxy-5H-pyrido[2,3-b]pyrazin-6-one], for which the minimal inhibitory concentration (MIC) against S. aureus 29213 is 0.125 µg/mL (≈ 0.266 µM). For the same compound, at hERG K+ channel, the inhibition at 4 min, 10 µM worked out at 5%.

As to `COc1ccc2ncc(=O)n(C[C@H](O)[C@@H]3CC[C@@H](NCc4cc5c(nn4)OCCS5)CO3)c2n1` [Example 12, 4-((2S)-2-{(2S,5R)-5-[(6,7-dihydro-8-oxa-5-thia-1,2-diaza-naphthalen-3-ylmethyl)-amino]-tetrahydro-pyran-2-yl}-2-hydroxy-ethyl)-6-methoxy-4H-pyrido[2,3-b]pyrazin-3-one], the MIC against S. aureus 29213 was 0.063 µg/mL (≈ 0.129 µM). In addition, the inhibition at 4 min, 10 µM on hERG K+ channel was found to be 7%.

For `COc1ccc2ccc(=O)n(C[C@H](O)[C@@H]3CC[C@@H](NCc4cc5c(nn4)OCCS5)CO3)c2n1` [Example 8, 1-((2S)-2-{(2S,5R)-5-[(6,7-dihydro-8-oxa-5-thia-1,2-diaza-naphthalen-3-ylmethyl)-amino]-tetrahydro-pyran-2-yl}-2-hydroxy-ethyl)-7-methoxy-1H-[1,8]naphthyridin-2-one], in the data set with S. aureus 29213, the MIC is 0.5 µg/mL (≈ 1.03 µM). Besides, the inhibition at 4 min, 10 µM on hERG K+ channel was 6%.

For the compound `COc1cnc2ccc(=O)n(C[C@H](O)[C@@H]3CC[C@@H](NCc4cc5c(nn4)OCCS5)CO3)c2n1` [Example 15, 5-((S)-2-{(2S,5R)-5-[(6,7-dihydro-8-oxa-5-thia-1,2-diaza-naphthalen-3-ylmethyl)-amino]-tetrahydro-pyran-2-yl}-2-hydroxy-ethyl)-3-methoxy-5H-pyrido[2,3-b]pyrazin-6-one], 0.25 µg/mL (≈ 0.514 µM) was the least that counted as inhibitory in the data set on S. aureus 29213 (MIC). Further, the inhibition at 4 min, 10 µM at hERG K+ channel amounted to 0%.

As for `COc1ccc2ccc(=O)n(C[C@H](O)[C@@H]3CC[C@@H](NCc4cc5c(nn4)OCCO5)CO3)c2n1` [Example 5, 1-((2S)-2-{(2S,5R)-5-[(6,7-dihydro-[1,4]dioxino[2,3-c]pyridazin-3-ylmethyl)-amino]tetrahydro-pyran-2-yl}-2-hydroxy-ethyl)-7-methoxy-1H-[1,8]naphthyridin-2-one], the MIC in the data set on S. aureus 29213 worked out at 0.063 µg/mL (≈ 0.134 µM). Moreover, the inhibition at 4 min, 10 µM on hERG K+ channel is 28%.

In the case of `COc1ccc2cc(F)c(=O)n(C[C@H](O)[C@@H]3CC[C@@H](NCc4cc5c(cn4)OCS5)CO3)c2n1` [Example 10, 3-fluoro-1-((2S)-2-hydroxy-2-{(2S,5R)-5-[(3-oxa-1-thia-5-aza-indan-6-ylmethyl)-amino]-tetrahydro-pyran-2-yl}-ethyl)-7-methoxy-1H-[1,8]naphthyridin-2-one], in the data set with S. aureus 29213, the minimum inhibitory concentration (MIC) was no more than 0.031 µg/mL. Also, the inhibition at 4 min, 10 µM on hERG K+ channel worked out at 48%.

`COc1ccc2ccc(=O)n(C[C@H](O)[C@@H]3CC[C@@H](NCc4cc5c(cn4)OCCS5)CO3)c2n1` [Example 1, 1-((S)-2-{(2S,5R)-5-[(2,3-dihydro-4-oxa-1-thia-6-aza-naphthalen-7-ylmethyl)-amino]-tetrahydro-pyran-2-yl}-2-hydroxy-ethyl)-7-methoxy-1H-[1,8]naphthyridin-2-one] had an MIC with S. aureus 29213 of no more than 0.031 µg/mL. For the same compound, the inhibition at 4 min, 10 µM at hERG K+ channel worked out at 32%.

`COc1ccc2ncc(=O)n(C[C@H](O)C3CCC(NCc4cc5c(cn4)OCCO5)CC3)c2c1` (stereo partly drawn) [Example 7, 1-((2R)-2-{4-[(2,3-dihydro-[1,4]dioxino[2,3-c]pyridin-7-ylmethyl)-amino]-cyclohexyl}-2-hydroxy-ethyl)-7-methoxy-1H-quinoxalin-2-one]: the results for the MIC in the data set with S. aureus 29213 and in the data set on S. aureus A798 were no more than 0.031 µg/mL and 0.125 µg/mL (≈ 0.268 µM), respectively. In addition, on hERG K+ channel, the inhibition at 4 min, 10 µM came out at 18%.

Turning to `COc1ccc2ncc(=O)n(C[C@H](O)[C@@H]3CC[C@@H](NCc4cc5c(cn4)OCCO5)CO3)c2c1` [Example 3, 1-((2S)-2-{(2S,5R)-5-[(2,3-dihydro-[1,4]dioxino[2,3-c]pyridin-7-ylmethyl)-amino]tetrahydro-pyran-2-yl}-2-hydroxy-ethyl)-7-methoxy-1H-quinoxalin-2-one], the MIC is no more than 0.031 µg/mL in the data set with S. aureus 29213 and no more than 0.063 µg/mL against S. aureus A798. For the same compound, the inhibition at 4 min, 10 µM at hERG K+ channel was 18%.

Take `COc1ccc2ccc(=O)n(C[C@H](O)[C@@H]3CC[C@@H](NCc4cc5c(cn4)OCS5)CO3)c2n1` [Example 9, 1-((2S)-2-hydroxy-2-{(2S,5R)-5-[(3-oxa-1-thia-5-aza-indan-6-ylmethyl)-amino]-tetrahydro-pyran-2-yl}-ethyl)-7-methoxy-1H-[1,8]naphthyridin-2-one]: the MIC in the data set on S. aureus 29213 was no more than 0.031 µg/mL. Also, on hERG K+ channel, the inhibition at 4 min, 10 µM came out at 52%.

For the compound `COc1ccc2ccc(=O)n(C[C@H](O)[C@@H]3CC[C@@H](NCc4cc5c(cn4)OCCO5)CO3)c2n1` [Example 2, 1-((2S)-2-{(2S,5R)-5-[(2,3-dihydro-[1,4]dioxino[2,3-c]pyridin-7-ylmethyl)-amino]-tetrahydro-pyran-2-yl}-2-hydroxy-ethyl)-7-methoxy-1H-[1,8]naphthyridin-2-one], the results for the MIC in the data set with S. aureus 29213 and against S. aureus A798 were no more than 0.031 µg/mL and no more than 0.063 µg/mL, respectively. The inhibition at 4 min, 10 µM on hERG K+ channel was 18%.

In the case of `COc1ccc2ncc(=O)n(C[C@H](O)[C@@H]3CC[C@@H](NCc4cc5c(cn4)OCCS5)CO3)c2n1` [Example 11, 4-((2S)-2-{(2S,5R)-5-[(2,3-dihydro-4-oxa-1-thia-6-aza-naphthalen-7-ylmethyl)-amino]-tetrahydro-pyran-2-yl}-2-hydroxy-ethyl)-6-methoxy-4H-pyrido[2,3-b]pyrazin-3-one], in the data set with S. aureus 29213, the MIC was no more than 0.031 µg/mL. The inhibition at 4 min, 10 µM at hERG K+ channel was found to be 45%.
